These results are taken from US20110034692A1 (ZENTIVA, K.S., priority 2008, published 2011).

For data set [1] the following is noted: for content of (Z)-montelukast in isolated montelukast: after 3 hours reflux in toluene, precipitation with heptane.
Data set [2] is described as follows: Stress test: methanolic solution of montelukast exposed to sunshine and air oxygen, HPLC monitoring. It is filed as physicochemical. The protocol: The solution in glass apparatus was exposed to the influence of sunshine and air oxygen and samples were take repeatedly (at the times of 40 minutes, 1 day, 4 days and 14 days) (20 μl of the mixture further diluted by methanol to the volume of 1 ml) for HPLC analysis in the isocratic mode.
HPLC chromatograms were measured with the EliteLachrom device of Hitachi. For the analyses a column filled with the stationary phase of RP-18e was used, column temperature 20° C. As the mobile phase a mixture of acetonitrile (80%) and a 0.1 M aqueous solution of ammonium formate, treated with formic acid to pH 3.6 (20%), was used. The measurements were performed in the isocratic mode with the mobile phase flow rate of 1.5 ml/min. Spectrophotometric detection at the wavelength of 234 nm was used. For the preparation of the samples to be analyzed methanol was used as the solvent, 10-20 μl of the prepared solution were used for the injection.

A short description of data set [3]: Light exposure of methanolic montelukast solution to sunshine under inert argon, (Z)-isomer content by HPLC. It is filed as physicochemical. The following applies: methanol solution, argon atmosphere.

Where two headings read alike, the source gives them in different places.

Regarding `CC(C)(O)c1ccccc1CC[C@@H](SCC1(CC(=O)[O-])CC1)c1cccc(/C=C\c2ccc3ccc(Cl)cc3n2)c1.[Na+]` [(Z)-montelukast, sodium salt of 1-[[[(1R)-1-[3-[(1Z)-2-(7-chloro-2-quinolinyl)ethenyl]phenyl]-3-[2-(1-hydroxy-1-methylethyl)phenyl]propyl]thio]methyl]cyclopropane acetic acid], the “content of (Z)-montelukast in isolated montelukast” value is reported as “below 0.1%” in data set [1] and “less than 0.1%” in data set [1] (listed as (Z)-isomer). Further, the “content of (Z)-montelukast, initial mixture of isomers” value in data set [1] (before reflux, toluene solution) worked out at 11%. In addition, the “content of (Z)-montelukast after 30 minutes of reflux” value in data set [1] (toluene, without light) turned out to be 5.6%. For the same compound, in data set [1] (toluene, without light), the “content of (Z)-montelukast after 60 minutes of reflux” value is 2.7%.
Take `CC(C)(O)c1ccccc1CC[C@@H](SCC1(CC(=O)[O-])CC1)c1cccc(/C=C/c2ccc3ccc(Cl)cc3n2)c1.[Na+]` [montelukast, sodium salt of [R-(E)]-1-[[[1-[3-[2-(7-chloro-2-quinolinyl)ethenyl]phenyl]-3-[2-(1-hydroxy-1-methylethyl)phenyl]propyl]thio]-methyl]cyclopropane acetic acid]: the “rate of transformation of montelukast to (Z)-montelukast sulfoxide (XII)” value in data set [2] (light and oxygen induced degradation) is reported as “relatively slow”. Besides, the “rate of transformation of montelukast (I) to (Z)-montelukast (V)” value in data set [2] (methanolic solution, sunshine and air oxygen) was “unexpectedly fast”. In addition, the “sensitivity of the substance to light and air oxygen” value in data set [2] (methanolic solution, sunshine and air oxygen, HPLC isocratic) is recorded as “high sensitivity”. In addition, the “content of the (Z)-isomer according to HPLC after exposure to sunshine” value is on record as 11% in data set [3] (sunshine 1.5 hours (Example 7)); “approximately 11%” in data set [3] (sunshine 1.5 hours (Example 7), listed as Montelukast); “approx. 73%” in data set [3] (sunshine 4 days (Example 9)).
